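Each compound was tested at five concentrations against cells in 96-well plates for 48 hours. GI50 = concentration required for 50% inhibition of growth.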 Activity calls are given as the source filed them. Rule as the data show it: active = GI50 up to about 1.1 µM and inactive = higher.
Tests used:
Assay in all cases: NCI-60 cell line screen, 48 h
[1] = test system: 786-0
[2] = test system: COLO 205
[3] = test system: SK-MEL-5
[4] = test system: HT-29
[5] = test system: KM12
[6] = test system: ACHN
[7] = test system: HCC 2998
[8] = test system: CCRF-CEM
[9] = test system: K562
[10] = test system: NCI-H460
[11] = test system: SK-MEL-2
[12] = test system: SF-295
[13] = test system: SW-620
[14] = test system: HCT-116
[15] = test system: HOP-62
[16] = test system: A498
[17] = test system: UACC-62

Structure (SMILES)	GI50 [1]	GI50 [2]	GI50 [3]	GI50 [4]	GI50 [5]	GI50 [6]	GI50 [7]	GI50 [8]	GI50 [9]	GI50 [10]	GI50 [11]	GI50 [12]	GI50 [13]	GI50 [14]	GI50 [15]	GI50 [16]	GI50 [17]
CC1CCC2(OCCO2)[C@]2(C)CC(O)C(=O)C=C12 (some centres undefined)	> 100 µM (inactive)	> 100 µM (inactive)	> 100 µM (inactive)	> 100 µM (inactive)	> 100 µM (inactive)	> 100 µM (inactive)	> 100 µM (inactive)	> 100 µM (inactive)	> 100 µM (inactive)	> 100 µM (inactive)	> 100 µM (inactive)	> 100 µM (inactive)	> 100 µM (inactive)				
Cc1ccc(S(=O)(=O)N/N=C\c2c3ccccc3[n+](C)c3ccccc23)cc1	28.1 µM (inactive)		29.4 µM (inactive)	19.4 µM (inactive)	34.6 µM (inactive)	41.9 µM (inactive)	92.7 µM (inactive)	15.3 µM (inactive)	15.6 µM (inactive)	19.8 µM (inactive)	43.8 µM (inactive)	13.8 µM (inactive)	33.8 µM (inactive)	30.5 µM (inactive)	34.1 µM (inactive)	20.4 µM (inactive)	19.8 µM (inactive)
O=C(O/N=C1/CCCC/C1=C\c1ccccc1)c1ccc(Cl)cc1	> 100 µM (inactive)	> 100 µM (inactive)	89.7 µM (inactive)	> 100 µM (inactive)	> 100 µM (inactive)	> 100 µM (inactive)	0.0177 µM (active)	> 100 µM (inactive)	> 100 µM (inactive)	> 100 µM (inactive)	> 100 µM (inactive)	47.4 µM (inactive)	> 100 µM (inactive)	> 100 µM (inactive)	> 100 µM (inactive)		> 100 µM (inactive)
O=C1[C@H]2ON(c3ccccc3)C(c3ccccc3)[C@H]2C(=O)N1c1ccc(Cc2ccc(N3C(=O)[C@@H]4ON(c5ccccc5)C(c5ccccc5)[C@@H]4C3=O)cc2)cc1 (some centres undefined)	> 100 µM (inactive)	> 100 µM (inactive)	> 100 µM (inactive)	> 100 µM (inactive)	> 100 µM (inactive)	> 100 µM (inactive)	> 100 µM (inactive)	> 100 µM (inactive)	> 100 µM (inactive)	> 100 µM (inactive)	> 100 µM (inactive)	> 100 µM (inactive)	> 100 µM (inactive)		> 100 µM (inactive)	> 100 µM (inactive)	> 100 µM (inactive)
c1cnc2nc3n(c2c1)CSC3	> 100 µM (inactive)	> 100 µM (inactive)	> 100 µM (inactive)	> 100 µM (inactive)	> 100 µM (inactive)	> 100 µM (inactive)	> 100 µM (inactive)	> 100 µM (inactive)	> 100 µM (inactive)	> 100 µM (inactive)	> 100 µM (inactive)	> 100 µM (inactive)	> 100 µM (inactive)		> 100 µM (inactive)	> 100 µM (inactive)	> 100 µM (inactive)
CC(=O)c1cc2c3c(c1)c1cc4c(cc1c(=O)n3CC2)OCO4	13.4 µM (inactive)	29.6 µM (inactive)	31 µM (inactive)	19.4 µM (inactive)	8.63 µM (inactive)	16.9 µM (inactive)	> 100 µM (inactive)	11.9 µM (inactive)	18.1 µM (inactive)	11.2 µM (inactive)	> 100 µM (inactive)	26.9 µM (inactive)	7.78 µM (inactive)	4.71 µM (inactive)	44.5 µM (inactive)		17.3 µM (inactive)
CC1(C)OCN(c2ccc(N3CCOCC3)cc2)Cn2c1nc1ccccc12	> 100 µM (inactive)	> 100 µM (inactive)		> 100 µM (inactive)	> 100 µM (inactive)	64 µM (inactive)	> 100 µM (inactive)	40.7 µM (inactive)	> 100 µM (inactive)	> 100 µM (inactive)	> 100 µM (inactive)	> 100 µM (inactive)	34.1 µM (inactive)	65.9 µM (inactive)	> 100 µM (inactive)	> 100 µM (inactive)	> 100 µM (inactive)
O=[N+]([O-])c1nccn1COCCI	> 100 µM (inactive)	> 100 µM (inactive)	> 100 µM (inactive)	> 100 µM (inactive)	> 100 µM (inactive)	> 100 µM (inactive)		> 100 µM (inactive)	> 100 µM (inactive)	> 100 µM (inactive)	> 100 µM (inactive)	> 100 µM (inactive)	> 100 µM (inactive)	> 100 µM (inactive)	> 100 µM (inactive)		> 100 µM (inactive)
O=S(=O)(N/N=C/c1ccc(Cl)c(Cl)c1)c1ccccc1	31.8 µM (inactive)	21.6 µM (inactive)	54 µM (inactive)	40.1 µM (inactive)	29 µM (inactive)	43.1 µM (inactive)	30.2 µM (inactive)	48.1 µM (inactive)	33.5 µM (inactive)		34.2 µM (inactive)	33.9 µM (inactive)	53 µM (inactive)	35.1 µM (inactive)	35.7 µM (inactive)	26.1 µM (inactive)	46.2 µM (inactive)
CCOC(=O)Nc1ccc(S(=O)(=O)I)cc1.CCOC(=O)Nc1ccc(S(=O)(=O)I)cc1.CN(C=O)C1=C(N(C)C=O)C(N(C)C=O)=C(N(C)C=O)C(=O)C1=O	> 100 µM (inactive)	> 100 µM (inactive)		> 100 µM (inactive)	> 100 µM (inactive)	> 100 µM (inactive)	> 100 µM (inactive)	> 100 µM (inactive)	> 100 µM (inactive)	> 100 µM (inactive)	> 100 µM (inactive)	> 100 µM (inactive)	> 100 µM (inactive)	> 100 µM (inactive)	> 100 µM (inactive)	> 100 µM (inactive)	> 100 µM (inactive)
CC(=O)C1C(=O)C(=O)N(CCN2C(=O)C(=O)C(C(C)=O)C2=O)C1=O (centres undefined)	> 100 µM (inactive)	> 100 µM (inactive)	> 100 µM (inactive)	> 100 µM (inactive)	> 100 µM (inactive)	> 100 µM (inactive)	> 100 µM (inactive)		> 100 µM (inactive)	> 100 µM (inactive)	> 100 µM (inactive)	> 100 µM (inactive)	> 100 µM (inactive)	> 100 µM (inactive)	> 100 µM (inactive)	> 100 µM (inactive)	> 100 µM (inactive)
CC(=O)OC12CCCCC1C1(CCCC1)NC2=O (centres undefined)	> 100 µM (inactive)			> 100 µM (inactive)	> 100 µM (inactive)	> 100 µM (inactive)	> 100 µM (inactive)	> 100 µM (inactive)	> 100 µM (inactive)	> 100 µM (inactive)		> 100 µM (inactive)	> 100 µM (inactive)	> 100 µM (inactive)	> 100 µM (inactive)	> 100 µM (inactive)	> 100 µM (inactive)
COc1cccc(N2C(=O)[C@H]3[C@H]4CC(C(C)(C)C)CC[C@H]4c4c([nH]c5ccccc45)[C@H]3C2=O)c1 (some centres undefined)	16.6 µM (inactive)	15.5 µM (inactive)	18 µM (inactive)	21.3 µM (inactive)	39 µM (inactive)		28.4 µM (inactive)	13.7 µM (inactive)	14 µM (inactive)		20.3 µM (inactive)	15.1 µM (inactive)	17.4 µM (inactive)		17.7 µM (inactive)		14.6 µM (inactive)

Source: ChEMBL document CHEMBL1201862, “PubChem BioAssay data set” (2004)
